Measured values: PMC11956012, “Optimization of Cyclophilin B-Targeted Tri-vector Inhibitors for Novel MASH Treatments” (Journal of Medicinal Chemistry, 2025)
Where two headings read alike, the source gives them in different places.

Legend:
Cyp A [1] = molecular target: T1, Cyp A (Homo sapiens, UniProt P62937)
Method: (§1) The cyclophilin binding properties of the compounds were assessed by Surface Plasmon Resonance (SPR) against Cyp A, B and D isoforms (Table 1, representative sensorgrams are shown in Figure 3A).[35]
Surface Plasmon Resonance (SPR)
(§2) SPR measurements were performed on a Biacore T200 instrument (Cytiva). Ni2+ -
(§3) nitrilotriacetic acid (NTA) sensor chips, 1-ethyl-3-(3-diaminopropyl) carbodiimide
(§4) hydrochloride (EDC) and N hydroxy succinimide (NHS) were purchased from Cytiva.
(§5) Immobilization and covalent stabilization of His-Cyps Pure His-cyclophilins on the NTA
(§6) sensor chip was performed essentially as described. [Wear et al., 2017, FEBS OpenBio], using
(§7) 200 nM concentrations of each protein, in Running Buffer (PBS, pH7.4; 0.05 % surfactant P20,
(§8) 2% v/v ethanol; 50 µM EDTA), at 30 µl min-1 with 60 second contact times on the activated
(§9) NTA surfaces. This gave signals of 1,921 RU for His-CypA, 1932 RU for His-CypB and 1,397
(§10) RU for His-CypD. Specific surface protein activity was assayed by passing saturating amounts
(§11) activity were obtained for His-CypA, -B and –D, respectively.
Kinetic titration experiments
(§12) Single cycle kinetic titration binding experiments were performed in triplicate at 25 °C. 3-fold
(§13) injected over the sensor surface, at 100 µl min-1 with a 90 s contact time and a 90 s dissociation
(§14) time. The sensor surface was regenerated between experiments by dissociating any formed
(§15) complex in running buffer for at least 1,200 seconds. The apparent on-rate (k+) and off-rate (k-
(§16) ) constants and the equilibrium dissociation constant (Kd) were calculated from reference

Cyp D = Cyp D (Homo sapiens, UniProt P30405)
Method: as §1
Surface Plasmon Resonance (SPR)
as §2, §3, §4, §5, §6, §7, §8, §9, §10, §11
Kinetic titration experiments
as §12, §13, §14, §15, §16

Cyp B [2] = molecular target: T2, Cyp B (Homo sapiens, UniProt P23284); test: biochemical
Method: as §1
Surface Plasmon Resonance (SPR)
as §2, §3, §4, §5, §6, §7, §8, §9, §10, §11
Kinetic titration experiments
as §12, §13, §14, §15, §16

[3] = test system: permeabilised human hepatocyte (HepG2) cells; test: Calcium Retention Capacity assay; format: cell-based; conditions: Homo sapiens; digitonin-permeabilised HepG2 cells; read-out: EC50 CRC assay
Method: Calcium Retention Capacity Assay
The compounds were prepared as a 10 mM stock solution in 100% DMSO. Subsequent dilutions were made in 100% DMSO and then in assay buffer to 10-fold the final concentration.
HepG2 cells were permeabilized with 100 µM digitonin for 10 min in ice cold buffer containing 1mM EGTA. Following two wash steps to remove the digitonin, the cells were plated into 96 well black and clear plates at 106 cell per well in a 180 µL assay buffer containing 0.5 µM Calcium Green 5N. Compounds dilution were prepared in DMSO to 1000 fold the final concentration, diluted 1:100 in assay buffer and added to the assay as 20 µL per well. The assay buffer contained 5 mM glutamate and 2.5 mM malate. The cell plate was immediately run on the FLIPR Tetratm which added 5 µL of 200 µM (5 µM) calcium chloride every 5 minutes whilst reading the plate every 3 seconds. The area under the curve (AUC) of the raw trace was calculated at each concentration. AUC values were plotted against concentration and EC50 values calculated. Experiments were repeated three times and the EC50 value was determined from a curve fitted to the averaged replicates.

iPSC-derived hepatocytes = test: In vitro hepatic steatosis (MASH) assay; format: cell-based; conditions: 48 h treatment
[4] = Intrinsic clearance, rat liver microsomes; format: in vitro ADME; conditions: for microsomal CLint: Table 3, read-out: Rat Liver microsomes CL; for half-life: read-out: Rat Liver microsomes t1/2
[5] = Intrinsic clearance, human liver microsomes; format: in vitro ADME; conditions: for microsomal CLint: Table 3, read-out: Human Liver microsomes CL; for half-life: read-out: Human Liver microsomes t1/2
[6] = Intrinsic clearance, rat hepatocytes; format: in vitro ADME; conditions: hepatocytes; for hepatocyte CLint: Table 3, read-out: Rat Hepatocytes CL; for half-life: read-out: Rat Hepatocytes t1/2
[7] = Intrinsic clearance, human hepatocytes; format: in vitro ADME; conditions: hepatocytes; for hepatocyte CLint: Table 3, read-out: Human Hepatocytes CL; for half-life: read-out: Human Hepatocytes t1/2
Cyp B [8] = molecular target: T2, Cyp B; conditions: from SPR Kd
Method: as §1
Surface Plasmon Resonance (SPR)
as §2, §3, §4, §5, §6, §7, §8, §9, §10, §11
Kinetic titration experiments
as §12, §13, §14, §15, §16

Caco-2 permeability = conditions: human, Caco-2
Caco-2 = Caco-2 permeability; conditions: apparent permeability A-B
[9] = test system: Salmonella typhimurium TA98; test: Ames fluctuation test TA98; conditions: for Ames fluctuation test TA98 +S9: with rat liver S9; for Ames fluctuation test TA98 –S9: without S9
Method: (§17) Bacterial cytotoxicity tests were carried out using Reverted Salmonella typhimurium strains
(§18) (TA98, TA100, TA1535, TA1537) that were incubated 96 hours at 37 Celsius. The results for
(§19) cytotoxicity are expressed as percent of control growth (OD650). Compounds with growth of
(§20) less than 60 % of control are flagged and considered cytotoxic.
(§21) Compounds were incubated for 96 hours at 37°C at 4 different concentrations (5 mM, 10 mM,
(§22) the absence and presence of rat liver S9 microsomes.
(§23) to the reversion of the histidine mutation (as judged by the ratio of OD430/OD570 being greater
(§24) than 1.0) are counted and recorded as positive counts. The significance of the positive counts
(§25) between the treatment (in the presence of test compound) and the control (in the absence of test
(§26) compound) are calculated using the one-tailed Fisher's exact test. Three significance levels are
(§27) Very strong positive, if p < 0.001, denoted as "+++"
(§28) Control experiments were carried out with 2-aminoanthracene (10 mM), 9-aminoacridine (10
(§29) mM), quercetin (30 mM) and streptozocitin (2.5 mM).

[10] = test system: Salmonella typhimurium TA100; test: Ames fluctuation test TA100; conditions: for Ames fluctuation test TA100 +S9: with rat liver S9; for Ames fluctuation test TA100 –S9: without S9
Method: as §17, §18, §19, §20, §21, §22, §23, §24, §25, §26, §27, §28, §29

[11] = test system: Salmonella typhimurium TA1535; test: Ames fluctuation test TA1535; conditions: for Ames fluctuation test TA1535 +S9: with rat liver S9; for Ames fluctuation test TA1535 –S9: without S9
Method: as §17, §18, §19, §20, §21, §22, §23, §24, §25, §26, §27, §28, §29

[12] = test system: Salmonella typhimurium TA1537; test: Ames fluctuation test TA1537; conditions: for Ames fluctuation test TA1537 +S9: with rat liver S9; for Ames fluctuation test TA1537 –S9: without S9
Method: as §17, §18, §19, §20, §21, §22, §23, §24, §25, §26, §27, §28, §29

[13] = Aqueous kinetic solubility, shake-flask
Method: (§30) These experiments were subcontracted to Eurofins.
(§31) Kinetic solubility measurements were carried out using a shake-flask technique. Compounds
(§32) were incubated for 24 hours at room temperature. Aqueous solubility (μM) was determined by
(§33) comparing the peak area of the principal peak in a calibration standard (200 μM) containing
(§34) organic solvent (methanol/water, 60/40, v/v) with the peak area of the corresponding peak in a
(§35) buffer sample. In addition, chromatographic purity (%) was defined as the peak area of the
(§36) principal peak relative to the total integrated peak area in the HPLC chromatogram of the
(§37) calibration standard. A chromatogram of the calibration standard of each test compound, along
(§38) with a UV/VIS spectrum with labeled absorbance maxima, was generated.
(§39) These were measured using a shake-flask technique. Compounds were incubated for 60 min at
(§40) room temperature. The total amount of compound was determined as the peak area of the
(§41) principal peak in a calibration standard (100 μM) containing organic solvent (methanol/water,
(§42) 60/40, v/v). The amount of compound in buffer was determined as the combined, volume
(§43) corrected, and weighted areas of the corresponding peaks in the aqueous phases of three
(§44) organic-aqueous samples of different composition. An automated weighting system was used
(§45) to ensure the preferred use of raw data from those samples with well quantifiable peak signals.
(§46) The amount of compound in organic was calculated by subtraction. Subsequently, Log D was
(§47) calculated as the Log10 of the amount of compound in the organic phase divided by the amount
of compound in the aqueous phase.

[14] = Partition coefficient (Log D), shake-flask; conditions: octanol/water
Method: as §30, §31, §32, §33, §34, §35, §36, §37, §38, §39, §40, §41, §42, §43, §44, §45, §46, §47
of compound in the aqueous phase.

[15] = test system: Salmonella typhimurium strains (TA98, TA100, TA1535, TA1537); test: Ames tests, all strains (summary in words); conditions: in absence and presence of liver S9 fractions
Method: as §17, §18, §19, §20, §21, §22, §23, §24, §25, §26, §27, §28, §29

Cyp A [16] = molecular target: T1, Cyp A; test: SPR kinetic titration, Cyp A
Method: as §1
Surface Plasmon Resonance (SPR)
as §2, §3, §4, §5, §6, §7, §8, §9, §10, §11
Kinetic titration experiments
as §12, §13, §14, §15, §16

[17] = set-up: method as in PMID 38324483; conditions: phase III trial; cited from earlier work
[18] = Kd Cyp B, SPR-derived dissociation constant, 25 °C

Cyp D, sequence (P30405 42-207): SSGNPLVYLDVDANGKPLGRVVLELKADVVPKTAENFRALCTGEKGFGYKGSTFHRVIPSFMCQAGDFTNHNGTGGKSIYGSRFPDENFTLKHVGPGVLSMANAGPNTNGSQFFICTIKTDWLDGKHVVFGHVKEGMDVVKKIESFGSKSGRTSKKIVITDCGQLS
T2 sequence (P23284 32-216 limits assumed): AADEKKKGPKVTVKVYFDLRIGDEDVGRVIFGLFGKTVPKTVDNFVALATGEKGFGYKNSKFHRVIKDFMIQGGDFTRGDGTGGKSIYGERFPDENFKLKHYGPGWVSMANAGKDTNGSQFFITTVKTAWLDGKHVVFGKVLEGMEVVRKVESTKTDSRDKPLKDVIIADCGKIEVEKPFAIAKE
T1 sequence (P62937 whole entry): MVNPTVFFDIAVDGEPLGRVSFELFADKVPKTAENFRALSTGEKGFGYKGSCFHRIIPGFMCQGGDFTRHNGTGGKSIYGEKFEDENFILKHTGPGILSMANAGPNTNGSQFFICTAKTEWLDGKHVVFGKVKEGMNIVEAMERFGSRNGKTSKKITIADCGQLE

CC(=O)NN=C1CN(Cc2cnc(N)c(Cl)c2)C(=O)N1CC(=O)N1CCC[C@@H]1c1ccccc1Br [Compound 19, N-[[1-[(6-amino-5-chloro-3-pyridyl)methyl]-2-oxo-3-[2-oxo-2-[(2R)-2-(2-bromophenyl) Pyrrolidin-1-yl]ethyl]imidazolidin-4-ylidene]amino]acetamide]
Kd (Cyp A [1]): > 10000 nM
Kd (Cyp D): > 10000 nM
Kd (Cyp B [2]): > 10000 nM

CSc1ccccc1[C@@H]1CCCN1C(=O)CNC(=O)N(Cc1ccc2c(c1)[C@@H]1C[C@@H](N2)[C@H](O)CO1)Cc1nnn(C)n1 [Compound 4, 1-[[(1S,9R,10S)-10-Hydroxy-12-oxa-8-azatricyclo[7.3.1.0,^27]trideca-2,4,6-trien-4-yl]methyl]-3-[2-[(2S)-2-(2-methylsulfanylphenyl)pyrrolidin-1-yl]-2-oxo-ethyl]-1-[(2-methyltetrazol-5-yl)methyl]urea]
EC50 [3]: 4120 nM
Kd (Cyp A [1]): 310 ± 40 nM
Kd (Cyp D): 400 ± 30 nM
Kd (Cyp B [2]; [18]): 420 ± 80 nM

CSc1ccccc1[C@H]1CCCN1C(=O)CNC(=O)N(Cc1ccc(N)cc1)Cc1nnn(C)n1 [Compound 2, 1-[(4-Aminophenyl)methyl]-1-[(2-methyltetrazol-5-yl)methyl]-3-[2-oxo-2-[(2R)-2-(2-methylsulfanylphenyl)pyrrolidin-1-yl]ethyl]urea]
EC50 [3]: 1390 nM
Kd (Cyp A [1]): 90 ± 10 nM
Kd (Cyp D): 80 ± 10 nM
Kd (Cyp B [2]): 12 ± 4 nM

CSc1ccccc1[C@H]1CCCN1C(=O)CNC(=O)N(Cc1cnc(N)c(Cl)c1)Cc1nnc(C)s1 [Compound 14, 1-[(6-Amino-5-chloro-3-pyridyl)methyl]-1-[(5-methyl-1,3,4-thiadiazol-2-yl)methyl]-3-[2-oxo-2-[(2R)-2-(2-methylsulfanylphenyl)pyrrolidin-1-yl]ethyl]urea]
Kd (Cyp A [1]): 960 ± 130 nM
Kd (Cyp D): 2400 ± 430 nM
Kd (Cyp B [2]): 92 ± 75 nM

CSc1ccccc1[C@H]1CCCN1C(=O)CNC(=O)N(Cc1cc(F)c(N)c(F)c1)Cc1nnn(C)n1 [Compound 5, 1-[(4-Amino-3,5-difluoro-phenyl)methyl]-1-[(2-methyltetrazol-5-yl)methyl]-3-[2-oxo-2-[(2R)-2-(2-methylsulfanylphenyl)pyrrolidin-1-yl]ethyl]urea]
Kd (Cyp A [1]): 1160 ± 200 nM
Kd (Cyp D): 1010 ± 120 nM
Kd (Cyp B [2]): 200 ± 40 nM

CSc1ccccc1[C@H]1CCCN1C(=O)CNC(=O)N(Cc1cnc(N)nc1)Cc1nnc(C)s1 [Compound 13, 1-[(2-Aminopyrimidin-5-yl)methyl]-1-[(5-methyl-1,3,4-thiadiazol-2-yl)methyl]-3-[2-oxo-2-[(2R)-2-(2-methylsulfanylphenyl)pyrrolidin-1-yl]ethyl]urea]
Kd (Cyp A [1]): 670 ± 100 nM
Kd (Cyp D): 1200 ± 300 nM
Kd (Cyp B [2]): 184 ± 7 nM

CSc1ccccc1[C@H]1CCCN1C(=O)CNC(=O)N(Cc1cnc(N)nc1)Cc1ncc(C)s1 [Compound 12, 1-[(2-Aminopyrimidin-5-yl)methyl]-1-[(5-methylthiazol-2-yl)methyl]-3-[2-oxo-2-[(2R)-2-(2-methylsulfanylphenyl)pyrrolidin-1-yl]ethyl]urea]
effect on hepatocyte overall lipid levels and lipid droplet size (in words) (iPSC-derived hepatocytes): lack of potency
EC50 (iPSC-derived hepatocytes; Hepatocyte, 48 h, read-out: EC50 MASH assay): > 10000 nM
microsomal CLint [4]: 449 µL/min/mg
half-life [4]: 15 min
microsomal CLint [5]: 604 µL/min/mg
half-life [5]: 11 min
hepatocyte CLint [6]: 12 µL/min/1e6 cells
half-life [6]: 84 min
hepatocyte CLint [7]: 11 µL/min/1e6 cells
half-life [7]: 94 min
Kd (Cyp A [1]): 7300 ± 1000 nM
selectivity for Cyp B over Cyp A (Cyp B [8]): 80 fold
Kd (Cyp D): 1500 ± 500 nM
Kd (Cyp B [2]; [18]): 88 ± 20 nM
efflux ratio (Caco-2 permeability): 16
Caco-2 A-B (Caco-2): 0.8 10^–6 cm/s
Ames fluctuation test TA98 +S9 [9]: neg/neg
Ames fluctuation test TA98 –S9 [9]: neg/neg
Ames fluctuation test TA100 +S9 [10]: neg/neg
Ames fluctuation test TA100 –S9 [10]: neg/neg
Ames fluctuation test TA1535 +S9 [11]: neg/neg
Ames fluctuation test TA1535 –S9 [11]: neg/neg
Ames fluctuation test TA1537 +S9 [12]: neg/neg
Ames fluctuation test TA1537 –S9 [12]: neg/neg
solubility at 24 h ([13]; PBS, pH 7.4): > 200 µM
solubility at 24 h ([13]; simulated gastric fluid): > 200 µM
solubility at 24 h ([13]; simulated intestinal fluid): > 200 µM
logD at 1 h, 100 µM [14]: 1.27
Ames result in all strains tested [15]: negative

CC(=O)NN=C1CN(Cc2ccc(N)c(Cl)c2)C(=O)N1CC(=O)N1CCC[C@@H]1c1ccccc1Br [Compound 17, N-[[1-[(4-amino-3-chloro-phenyl)methyl]-3-[2-[(2R)-2-(2-bromophenyl)pyrrolidin-1-yl]-2-oxo-ethyl]-2-oxo-imidazolidin-4-ylidene]amino]acetamide]
Kd (Cyp A [1]): > 10000 nM
Kd (Cyp D): > 10000 nM
Kd (Cyp B [2]): > 10000 nM

CSc1ccccc1[C@H]1CCCN1C(=O)CN1C(=O)CN(Cc2cc(F)c(N)c(F)c2)C1=O [Compound 15, 1-[(4-Amino-3,5-difluoro-phenyl)methyl]-3-[2-oxo-2-[(2R)-2-(2-methylsulfanylphenyl)pyrrolidine-1-yl]ethyl]imidazolidine-2,4-dione]
Kd (Cyp D): 6300 ± 1600 nM
Kd (Cyp B [2]): 3800 ± 1300 nM
Kd (Cyp A [16]): 6.7 ± 2.6 µM

CSc1ccccc1[C@H]1CCCN1C(=O)CN1C(=O)N(Cc2ccc(N)c(Cl)c2)CC1=NNC(C)=O [Compound 16, N-[[1-[(4-amino-3-chloro-phenyl)methyl]-2-oxo-3-[2-oxo-2-[(2R)-2-(2-methylsulfanylphenyl)pyrrolidin-1-yl]ethyl]imidazolidin-4-ylidene]amino]acetamide]
Kd (Cyp A [1]): 7100 ± 1250 nM
Kd (Cyp D): 9100 ± 900 nM
Kd (Cyp B [2]): 4500 ± 500 nM

CSc1ccccc1[C@H]1CCCN1C(=O)CN1C(=O)N(Cc2cnc(N)c(Cl)c2)CC1=NNC(C)=O [Compound 18, N-[[1-[(6-amino-5-chloro-3-pyridyl)methyl]-3-[2-[(2R)-2-(2-methylsulfanylphenyl) Pyrrolidin-1-yl]-2-oxo-ethyl]-2-oxo-imidazolidin-4-ylidene]amino]acetamide]
Kd (Cyp A [1]): > 10000 nM
Kd (Cyp D): > 10000 nM
Kd (Cyp B [2]): > 10000 nM

CC(C)c1cc(Oc2c(Cl)cc(-n3nc(C#N)c(=O)[nH]c3=O)cc2Cl)n[nH]c1=O [Resmetirom, reference compound]
EC50 (iPSC-derived hepatocytes; 95% CI [lower limit, upper limit], listed as Res, read-out: EC50 steatosis): 261 nM
EC50 (iPSC-derived hepatocytes; Hepatocyte, 48 h, 95% CI [lower limit, upper limit], read-out: EC50 steatosis): ~300 nM
patients with improved liver pathology [17]: 25–30%

CSc1ccccc1[C@H]1CCCN1C(=O)CNC(=O)N(Cc1cc(F)c(N)c(F)c1)Cc1cn(C)nn1 [Compound 6, 1-[(4-Amino-3,5-difluoro-phenyl)methyl]-1-[(1-methyltriazol-4-yl)methyl]-3-[2-oxo-2-[(2R)-2-(2-methylsulfanylphenyl)pyrrolidin-1-yl]ethyl]urea]
Kd (Cyp A [1]): 4600 ± 2400 nM
Kd (Cyp D): 2970 ± 800 nM
Kd (Cyp B [2]): 630 ± 100 nM

C#CCN(Cc1cc(F)c(N)c(F)c1)C(=O)NCC(=O)N1CCC[C@@H]1c1ccccc1SC [Compound 7, 1-[(4-Amino-3,5-difluoro-phenyl)methyl]-3-[2-oxo-2-[(2R)-2-(2-methylsulfanylphenyl)pyrrolidin-1-yl]ethyl]-1-prop-2-ynyl-urea]
Kd (Cyp A [1]): 8750 ± 2900 nM
Kd (Cyp D): 5850 ± 2000 nM
Kd (Cyp B [2]): 3740 ± 780 nM

Cn1nnc(CN(Cc2ccc(N)c(Cl)c2)C(=O)NCC(=O)N2CCC[C@@H]2c2ccccc2Br)n1 [Compound 10, 1-[(4-Amino-3-chloro-phenyl)methyl]-1-[(2-methyltetrazol-5-yl)methyl]-3-[2-oxo-2-[(2R)-2-(2-bromophenyl)pyrrolidin-1-yl]ethyl]urea]
microsomal CLint [4]: 238 µL/min/mg
half-life [4]: 29 min
microsomal CLint [5]: 344 µL/min/mg
half-life [5]: 20 min
hepatocyte CLint [6]: < 8 µL/min/1e6 cells
half-life [6]: > 120 min
hepatocyte CLint [7]: 12 µL/min/1e6 cells
half-life [7]: 85 min
Kd (Cyp A [1]): 200 ± 40 nM
Kd (Cyp D): 580 ± 100 nM
Kd (Cyp B [2]): 35 ± 6 nM
efflux ratio (Caco-2 permeability): 1.9
Caco-2 A-B (Caco-2): 6.6 10^–6 cm/s
Ames fluctuation test TA98 +S9 [9]: neg/neg
Ames fluctuation test TA98 –S9 [9]: neg/neg
Ames fluctuation test TA100 +S9 [10]: neg/neg
Ames fluctuation test TA100 –S9 [10]: neg/neg
Ames fluctuation test TA1535 +S9 [11]: neg/neg
Ames fluctuation test TA1535 –S9 [11]: neg/neg
Ames fluctuation test TA1537 +S9 [12]: neg/neg
Ames fluctuation test TA1537 –S9 [12]: neg/neg
solubility at 24 h ([13]; PBS, pH 7.4): > 200 µM
solubility at 24 h ([13]; simulated gastric fluid): > 200 µM
solubility at 24 h ([13]; simulated intestinal fluid): > 200 µM
logD at 1 h, 100 µM [14]: 1.74
Ames result in all strains tested [15]: negative
